One assay has as its target T1, hNTS1 receptor (Homo sapiens, UniProt P30989).
T1 construct: membranes prepared from them
The assay is described as follows: Competitive radioligand binding assay on the hNTS1 receptor. To be noted: displacement of 125I-[Tyr3]-NT, membranes of CHO-K1 cells expressing hNTS1; read-out: IC50 NTS1. Here is the method:
(§1) CHO-K1 (Chinese Hamster Ovary) cells stably expressing hNTS1 and 1321N1 cells stably expressing hNTS2 (ES-690-C and ES-691-C from PerkinElmer, Montréal, Canada) were cultured respectively in Ham's F12 and in DMEM culture media. Culture media were supplemented with 10% FBS, 100 U/mL penicillin, 100 μg/mL streptomycin, 20 mM HEPES, and 0.4 mg/mL G418 at 37° C. in a humidified chamber at 5% CO2.
(§2) The cells expressing hNTS1 were frozen when they reached 80% confluency. They were scrapped off the dish with 10 mM Tris buffer, 1 mM EDTA, pH 7.5 and centrifuged at 15,000 g for 5 min at 4° C. The pellet was then re-suspended in 1 mL binding buffer. The cells expressing hNTS2 were also frozen when they reached 80% confluency. They were scraped off the dish with PBS, 0.5 mM EDTA, pH 7.5 and sonicated for 5 minutes (pulse 30 s/5 s off, amplitude 40%). They were ultracentrifuged at 100 000 g for 60 minutes at 4° C. The pellet was re-suspended in 1 mL freezing buffer (PBS, glycerol, 0.5 mM EDTA), sonicated for 1 minute (pulse 30 s/5 s off, amplitude 50%) and further diluted in binding buffer. Competitive radioligand binding experiments were performed by incubating 15 μg of cell membranes expressing the hNTS1 receptor with […] of ^125I-[Tyr^3]-NT (2200 Ci/mmol) or 50 μg of cell membranes expressing the hNTS2 receptor with […] of ^125I-[Tyr^3]-NT in binding buffer (50 mM Tris-HCl, pH 7.5, 0.2% BSA) in the presence of increasing concentrations of analogues ranging from 10^−11 to 10^−4 M for 60 min at 25° C. After incubation, the binding reaction mixture was transferred in PEI-coated 96-well filter plates (glass fiber filters GF/B, Millipore, Billerica, MA). Reaction was terminated by filtration, and plates were washed three times with 200 μL ice-cold binding buffer. Glass filters were then counted using a γ-counter (2470 Wizard2, PerkinElmer, Mississauga, Ontario, Canada). Non-specific binding was measured in the presence of 10^−5 M unlabeled NT (8-13) and represented less than 5% of total binding. IC50 values were determined from competition curves as the unlabeled ligand concentration inhibiting 50% of ^125I-[Tyr^3]-NT-specific binding.
(§3) Competitive radioligand binding data were plotted using the nonlinear regression One-site-Fit Log(IC50) and represented the mean±SEM of at least three independent experiments in triplicates.
(In general: In a radioligand displacement assay an active substance lowers the binding of a labelled ligand.)

In a further assay the target is T2, hNTS2 receptor (Homo sapiens, UniProt O95665).
T2 construct: membranes prepared from them
T2 sequence (O95665 whole entry): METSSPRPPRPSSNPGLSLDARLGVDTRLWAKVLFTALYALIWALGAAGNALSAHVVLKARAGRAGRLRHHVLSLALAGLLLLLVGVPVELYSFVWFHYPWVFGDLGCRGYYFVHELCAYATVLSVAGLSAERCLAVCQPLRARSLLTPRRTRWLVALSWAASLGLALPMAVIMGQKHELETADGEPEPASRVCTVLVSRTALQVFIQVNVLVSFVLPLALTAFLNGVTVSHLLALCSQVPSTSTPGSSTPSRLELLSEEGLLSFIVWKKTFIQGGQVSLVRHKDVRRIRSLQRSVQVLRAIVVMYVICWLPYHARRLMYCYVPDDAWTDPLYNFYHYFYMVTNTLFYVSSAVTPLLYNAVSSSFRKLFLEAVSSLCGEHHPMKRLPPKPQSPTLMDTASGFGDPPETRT
Description: Competitive radioligand binding assay on the hNTS2 receptor. To be noted: for IC50: displacement of 125I-[Tyr3]-NT, membranes of 1321N1 cells expressing hNTS2, read-out: IC50 NTS2 (converted); for Selectivity: ratio IC50 for NTS1 : IC50 for NTS2. Here is the method: as §1, §2, §3

SMILES strings stand for the structures. pIC50: −log10 of the molar value. Where a SMILES comes first, the peptide text is derived from it. Bridges are numbered along the chain shown (N, C = ends). [ ]: non-standard residue; d: D form. Phe(3-Br) = N[C@@H](Cc1cccc(Br)c1)C(=O)O; Phe(4-CN) = N#Cc1ccc(C[C@H](N)C(=O)O)cc1; 2Nal = N[C@@H](Cc1ccc2ccccc2c1)C(=O)O; Bta = N[C@@H](Cc1csc2ccccc12)C(=O)O; 3Pal = N[C@@H](Cc1cccnc1)C(=O)O; dAllylGly = C=CC[C@@H](N)C(=O)O; Cit = NC(=O)NCCC[C@H](N)C(=O)O; AllylGly = C=CC[C@H](N)C(=O)O; Tle = CC(C)(C)[C@H](N)C(=O)O; Nle = CCCC[C@H](N)C(=O)O; Orn = NCCC[C@H](N)C(=O)O; Dap = NC[C@H](N)C(=O)O

T1 sequence (P30989 whole entry): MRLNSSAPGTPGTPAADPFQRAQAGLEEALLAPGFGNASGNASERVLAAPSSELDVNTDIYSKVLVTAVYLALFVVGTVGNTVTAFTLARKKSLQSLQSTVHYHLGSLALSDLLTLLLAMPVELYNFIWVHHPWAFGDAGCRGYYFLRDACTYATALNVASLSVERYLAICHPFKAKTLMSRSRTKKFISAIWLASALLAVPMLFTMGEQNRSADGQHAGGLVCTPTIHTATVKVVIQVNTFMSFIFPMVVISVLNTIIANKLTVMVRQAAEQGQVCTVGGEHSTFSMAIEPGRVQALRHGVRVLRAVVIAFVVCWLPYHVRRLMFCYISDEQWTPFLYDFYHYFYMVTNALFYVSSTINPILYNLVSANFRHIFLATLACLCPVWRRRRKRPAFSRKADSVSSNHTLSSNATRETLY

Consider `CC(C)C[C@@H](NC(=O)[C@H](Cc1ccc(O)cc1)NC(=O)[C@@H]1CC=CC[C@H](N)C(=O)N[C@@H](CCCCN)C(=O)N[C@@H](CCCCN)C(=O)N1)C(=O)O` [compound 38, c[G(All)KKG(All)]YL*] (H-[AllylGly]KK[AllylGly]Y[dL]-OH; staple 1-4), for which, at hNTS1 receptor, the pIC50 was under 4.00. Moreover, at hNTS2 receptor, the IC50 is 240 µM and the Selectivity is over 2.4.
For `CC(C)C[C@H](NC(=O)[C@H](Cc1ccc(C#N)cc1)NC(=O)[C@@H]1CC=CC[C@H](N)C(=O)N[C@@H](CCCCN)C(=O)N[C@@H](CCCCN)C(=O)N1)C(=O)O` [compound 118, c[G(All)KKG(All)]F(4-cyano)L] (H-[AllylGly]KK[AllylGly][Phe(4-CN)]L-OH; staple 1-4), the pIC50 at hNTS1 receptor is under 4.00. Also, on hNTS2 receptor, the IC50 was 0.0578 µM and the Selectivity was over 1729.
`CCCC[C@@H]1NC(=O)[C@H](CCCCN)NC(=O)[C@@H](N)CC=CC[C@@H](C(=O)N[C@@H](Cc2ccc(O)cc2)C(=O)N[C@@H](CC(C)C)C(=O)O)NC1=O` [compound 57, c[G(All)KNleG(All)]YL] (H-[AllylGly]K[Nle][AllylGly]YL-OH; staple 1-4): the pIC50 on hNTS1 receptor was under 4.00. Besides, at hNTS2 receptor, the IC50 was 0.716 µM and the Selectivity is recorded as over 140.
On to `CC(C)C[C@H](NC(=O)[C@H](Cc1ccc2ccccc2c1)NC(=O)[C@@H]1CC=CC[C@H](N)C(=O)N[C@@H](CCCCN)C(=O)N[C@@H](CCCCN)C(=O)N1)C(=O)O` [compound 112, c[G(All)KKG(All)]A(naphtyl)L] (H-[AllylGly]KK[AllylGly][2Nal]L-OH; staple 1-4), for which the pIC50 on hNTS1 receptor is under 4.00. At hNTS2 receptor, the IC50 is 0.0836 µM and the Selectivity is over 1196.
With `CC(C)C[C@H](NC(=O)[C@H](Cc1ccc(Br)cc1)NC(=O)[C@@H]1CC=CCCC(=O)N[C@@H](CCCCN)C(=O)N[C@@H](CCCCN)C(=O)N1)C(=O)O` [compound 131, c[K(pentenoyl)KG(All)](4-bromo)L], the pIC50 on hNTS1 receptor was under 4.00. For the same compound, at hNTS2 receptor, the IC50 was 0.0274 µM and the Selectivity is given as 3650.
For the compound `CC(C)C[C@H](NC(=O)[C@H](Cc1cccnc1)NC(=O)[C@@H]1CC=CC[C@H](N)C(=O)N[C@@H](CCCCN)C(=O)N[C@@H](CCCCN)C(=O)N1)C(=O)O` [compound 169, c[G(All)KKG(All)]A(3-pyridyl)L] (H-[AllylGly]KK[AllylGly][3Pal]L-OH; staple 1-4), the pIC50 on hNTS1 receptor was under 4.00. Further, at hNTS2 receptor, the IC50 is 0.234 µM and the Selectivity is on record as 427.
For `CC(C)C[C@H](NC(=O)[C@H](Cc1csc2ccccc12)NC(=O)[C@@H]1CC=CC[C@H](N)C(=O)N[C@@H](CCCCN)C(=O)N[C@@H](CCCCN)C(=O)N1)C(=O)O` [compound 168, c[G(All)KKG(All)]A(3-benzothienyl)L] (H-[AllylGly]KK[AllylGly][Bta]L-OH; staple 1-4), in that order: under 4.00, 0.102 µM and 979.
`CC(C)C[C@H](NC(=O)[C@H](Cc1ccc(O)cc1)NC(=O)[C@@H]1CC(=O)NC[C@H](N)C(=O)N[C@@H](CCCCN)C(=O)N[C@@H](CCCCN)C(=O)N1)C(=O)O` [compound 94, c[DapKKD]YL] (H-[Dap]KKDYL-OH; lactam 1-4): the pIC50 at hNTS1 receptor was under 4.00. At hNTS2 receptor, the IC50 was 22.8 µM and the Selectivity is on record as over 4.4.
Turning to `CC(C)(C)[C@H](NC(=O)[C@H](Cc1ccc(O)cc1)NC(=O)[C@@H]1CC=CC[C@H](N)C(=O)N[C@@H](CCCCN)C(=O)N[C@@H](CCCCN)C(=O)N1)C(=O)O` [compound 27, c[G(All)KKG(All)]YTle] (H-[AllylGly]KK[AllylGly]Y[Tle]-OH; staple 1-4), the pIC50 at hNTS1 receptor is under 4.00. On hNTS2 receptor, the IC50 is 77.8 µM and the Selectivity was over 1.3.
In the case of `CC(C)C[C@H](NC(=O)[C@H](Cc1ccc(O)cc1)NC(=O)[C@@H]1CC=CC[C@@H](N)C(=O)N[C@@H](CCCCN)C(=O)N[C@@H](CCCCN)C(=O)N1)C(=O)O` [compound 41, c[G*(All)KKG(All)]YL] (H-[dAllylGly]KK[AllylGly]YL-OH; staple 1-4), the pIC50 on hNTS1 receptor was under 4.00. On hNTS2 receptor, the IC50 is 0.113 µM and the Selectivity is recorded as over 889.
For `COc1ccc(C[C@H](NC(=O)[C@H](Cc2ccc(O)cc2)NC(=O)[C@@H]2CC=CC[C@H](N)C(=O)N[C@@H](CCCCN)C(=O)N[C@@H](CCCCN)C(=O)N2)C(=O)O)cc1` [compound 62, c[G(All)KKG(All)]YY(OMe)] (H-[AllylGly]KK[AllylGly]YY(Me)-OH; staple 1-4), the negative logarithm of the IC50 (pIC50) at hNTS1 receptor was under 4.00. For the same compound, at hNTS2 receptor, the IC50 is 0.166 µM and the Selectivity was over 602.
As for `CC(C)C[C@H](NC(=O)[C@H](Cc1cccc(Br)c1)NC(=O)[C@@H]1CC=CC[C@H](N)C(=O)N[C@@H](CCCCN)C(=O)N[C@@H](CCCCN)C(=O)N1)C(=O)O` [compound 115, c[G(All)KKG(All)]F(3-bromo)L] (H-[AllylGly]KK[AllylGly][Phe(3-Br)]L-OH; staple 1-4), the pIC50 on hNTS1 receptor was under 4.00. Also, on hNTS2 receptor, the IC50 is 0.0284 µM and the Selectivity is given as over 3523.
Turning to `CC(C)C[C@H](NC(=O)[C@H](Cc1ccc(O)cc1)NC(=O)[C@@H]1CC=CC[C@H](N)C(=O)N[C@@H](CCCNC(N)=O)C(=O)N[C@@H](CCCNC(N)=O)C(=O)N1)C(=O)O` [compound 148, c[G(All)citrulline-citrullineG (All)]YL] (H-[AllylGly][Cit][Cit][AllylGly]YL-OH; staple 1-4), on hNTS1 receptor, the pIC50 was under 4.00. At hNTS2 receptor, the IC50 is 7.9 µM and the Selectivity was determined as 13.
Take `CC(C)C[C@H](NC(=O)[C@H](Cc1ccc(O)cc1)NC(=O)[C@@H]1CCCCNC(=O)CC[C@H](N)C(=O)N[C@@H](CCCCN)C(=O)N[C@@H](CCCCN)C(=O)N1)C(=O)O` [compound 108, c[EKKK]YL] (H-EKKKYL-OH; lactam 1-4): the pIC50 on hNTS1 receptor is under 4.00.
Take `CC(C)C[C@H](NC(=O)[C@H](Cc1ccc(O)cc1)NC(=O)[C@@H]1CNC(=O)CC[C@H](N)C(=O)N[C@@H](CCCCN)C(=O)N[C@@H](CCCCN)C(=O)N1)C(=O)O` [compound 102, c[EKKDap]YL] (H-EKK[Dap]YL-OH; lactam 1-4): on hNTS1 receptor, the pIC50 is under 4.00.
In the case of `CC(C)C[C@H](NC(=O)[C@H](Cc1ccc(O)cc1)NC(=O)[C@@H]1CCCNC(=O)CC[C@H](N)C(=O)N[C@@H](CCCCN)C(=O)N[C@@H](CCCCN)C(=O)N1)C(=O)O` [compound 106, c[EKKOrn]YL] (H-EKK[Orn]YL-OH; lactam 1-4), the negative logarithm of the IC50 (pIC50) on hNTS1 receptor is under 4.00.
With `CC(=O)Oc1ccc(C[C@H](NC(=O)[C@@H]2CC=CC[C@H](N)C(=O)N[C@@H](CCCCN)C(=O)N[C@@H](CCCCN)C(=O)N2)C(=O)N[C@@H](CC(C)C)C(=O)O)cc1` [compound 15, c[G(All)KKG(All)]Y(OAc)L] (H-[AllylGly]KK[AllylGly]Y(Ac)L-OH; staple 1-4), at hNTS1 receptor, the pIC50 was under 4.00.
Same read-out and setting: for `CC(C)C[C@H](NC(=O)[C@H](Cc1ccc(O)cc1)NC(=O)[C@@H]1CCCCNC(=O)C[C@H](N)C(=O)N[C@@H](CCCCN)C(=O)N[C@@H](CCCCN)C(=O)N1)C(=O)O` [compound 109, c[DKKK]YL] (H-DKKKYL-OH; lactam 1-4) the value was under 4.00; for `CC(C)C[C@H](NC(=O)[C@H](Cc1ccc(O)cc1)NC(=O)[C@@H]1CCCNC(=O)C[C@H](N)C(=O)N[C@@H](CCCCN)C(=O)N[C@@H](CCCCN)C(=O)N1)C(=O)O` [compound 107, c[DKKOrn]YL] (H-DKK[Orn]YL-OH; lactam 1-4), under 4.00.

As usually defined, the pIC50 is the negative decadic logarithm of the IC50, by convention in mol/L. A word on the IC50: it is the concentration that gives 50% inhibition.
